Test results reported in patent USRE47302E1 (ONYX THERAPEUTICS INC., priority 2013, dated 2019).
In brackets after ≈: the same amount, converted by molar mass. Read-outs that look alike come from different tables or passages of the source.

Assays:
[1] = Solubility pH 7; conditions: pH 7, aqueous buffer
[2] = target: human constitutive 20S proteasome (c20S) (Homo sapiens, UniProt P28074); test: 20S proteasome assay, chymotrypsin-like activity (succinyl-Leu-Leu-Val-Tyr-AMC), c20S; type: biochemical; conditions: LLVY substrate, 1 h continuous
Text: (§1) Assay buffer consisted of TE buffer [20 mmol/L Tris (pH 8.0), 0.5 mmol/L EDTA] with (20S) or without (cell lysate) 0.03% SDS. Reactions were initiated by enzyme or lysate addition and monitored for AMC product formation at 27jC with a plate-based spectofluorometer (Tecan).

[3] = target: human 20S immunoproteasome (i20S) (Homo sapiens, UniProt P28062); test: 20S proteasome assay, chymotrypsin-like activity (succinyl-Leu-Leu-Val-Tyr-AMC), i20S; type: biochemical
Text: as §1

[4] = target: T1, proteasome subunit β5 (beta5) (Homo sapiens, UniProt P28074); test: Proteasome active-site ELISA (ProCISE), beta5, MOLT-4 lysate; type: biochemical; conditions: MOLT4 lysate, human, 1 h continuous treatment, 25° C.
T1 construct: Lysate from the human acute lymphoblastic leukemia cell line, MOLT-4; endogenous in cells; host or cells: MOLT-4
Method in brief: (§2)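 MOLT-4 cell lysate treated 1 h at 25 °C with compound; probe-bound subunits denatured, pulled down on streptavidin beads and detected with subunit-specific antibodies plus HRP chemiluminescence.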

[5] = target: T2, immunoproteasome subunit LMP7 (Homo sapiens, UniProt P28062); test: Proteasome active-site ELISA (ProCISE), LMP7, MOLT-4 lysate; type: biochemical
T2 construct: Lysate from the human acute lymphoblastic leukemia cell line, MOLT-4; endogenous in cells; host or cells: MOLT-4
Method in brief: as §2

[6] = read-out: ProCISE beta5 MOLT4 lysate Hu 1 h CONT: IC50
[7] = read-out: LLVY i20S Hu 1 h CONT: IC50, LLVY substrate, 1 h continuous
[8] = read-out: ProCISE LMP7 MOLT4 lysate Hu 1 h CONT: IC50, 1 h continuous treatment, 25° C.
[9] = MOLT4 lysate, 1 h continuous treatment, 25° C.

solubility [1] | IC50 [2] | IC50 ([3]; LLVY substrate, 1 h continuous) | IC50 [4, 6] | IC50 [3, 7] | IC50 [5, 8] | IC50 [4] | IC50 [5, 9] | Structure (SMILES)
911 µg/mL (≈ 1.71 mM) | 548 nM | 445 nM | – | – | – | – | – | C[C@H](NC(=O)CN1CCOCC1)C(=O)N[C@@H](Cc1ccco1)C(=O)N[C@@H](CC1CCCC1)C(=O)[C@@]1(C)CO1 [Compound C-1013, (S)-N-((S)-3-cyclopentyl-1-((R)-2-methyloxiran-2-yl)-1-oxopropan-2-yl)-3-(furan-2-yl)-2-((S)-2-(2-morpholinoacetamido)propanamido)propanamide]
2730 µg/mL (≈ 4.39 mM) | – | – | 63.9 nM | 10.5 nM | 19.5 nM | – | – | COc1ccc(C[C@H](NC(=O)[C@@H](NC(=O)CN2CCOCC2)C2(O)CC2)C(=O)N[C@@H](Cc2ccccc2)C(=O)[C@@]2(C)CO2)cc1 [Compound C-1184]
3450 µg/mL (≈ 6.34 mM) | – | – | 205 nM | 18.6 nM | 49.5 nM | – | – | C=CC(=O)NC[C@H](NC(=O)[C@H](C)NC(=O)CN1CCOCC1)C(=O)N[C@@H](Cc1ccccc1)C(=O)[C@@]1(C)CO1 [Compound C-1225]
251 µg/mL (≈ 0.462 mM) | 24800 nM | 436 nM | – | – | – | – | – | COc1ccc(C[C@H](NC(=O)[C@@H](C)NC(=O)[C@H]2CCCO2)C(=O)N[C@@H](CC2CCCC2)C(=O)[C@@]2(C)CO2)cc1 [Compound C-1032, (R)-N-((R)-1-(((S)-1-(((S)-3-cyclopentyl-1-((R)-2-methyloxiran-2-yl)-1-oxopropan-2-yl)amino)-3-(4-methoxyphenyl)-1-oxopropan-2-yl)amino)-1-oxopropan-2-yl)tetrahydrofuran-2-carboxamide]
– | – | – | – | 1500 nM | – | – | – | COC[C@H](NC(=O)[C@H](C)NC(=O)CN1CCOCC1)C(=O)N[C@@H](Cc1ccccc1)C(=O)[C@@]1(C)CO1 [Compound C-1234]
277 µg/mL (≈ 0.51 mM) | 16500 nM | 480 nM | – | – | – | – | – | COc1ccc(C[C@H](NC(=O)[C@@H](C)NC(=O)[C@@H]2CCOC2)C(=O)N[C@@H](CC2CCCC2)C(=O)[C@@]2(C)CO2)cc1 [Compound C-1036, (R)-N-((R)-1-(((S)-1-(((S)-3-cyclopentyl-1-((R)-2-methyloxiran-2-yl)-1-oxopropan-2-yl)amino)-3-(4-methoxyphenyl)-1-oxopropan-2-yl)amino)-1-oxopropan-2-yl)tetrahydrofuran-3-carboxamide]
– | – | – | – | 11 nM | – | – | – | COC[C@H](NC(=O)CN1CCOCC1)C(=O)N[C@@H](Cc1ccc(OC)cc1)C(=O)N[C@@H](Cc1ccccc1)C(=O)[C@@]1(C)CO1 [Compound C-1220]
2640 µg/mL (≈ 4.37 mM) | > 10000 nM | 3230 nM | – | – | – | – | – | COc1ccc(C[C@H](NC(=O)[C@H](C)NC(=O)CN2CCOCC2)C(=O)N[C@@H](C[C@H]2CC[C@@H](O)CC2)C(=O)[C@@]2(C)CO2)cc1 [Compound C-1001, (S)-N-((S)-3-((1s,4R)-4-hydroxycyclohexyl)-1-((R)-2-methyloxiran-2-yl)-1-oxopropan-2-yl)-3-(4-methoxyphenyl)-2-((S)-2-(2-morpholinoacetamido)propanamido)propanamide]
2780 µg/mL (≈ 4.57 mM) | 25400 nM | 1050 nM | – | – | – | – | – | COc1ccc(C[C@H](NC(=O)[C@H](C)NC(=O)CN2CCOCC2)C(=O)N[C@@H](C[C@H]2CCC(F)(F)C2)C(=O)[C@@]2(C)CO2)cc1 [Compound C-1034, (S)-N-((S)-3-((R)-3,3-difluorocyclopentyl)-1-((R)-2-methyloxiran-2-yl)-1-oxopropan-2-yl)-3-(4-methoxyphenyl)-2-((S)-2-(2-morpholinoacetamido)propanamido)propanamide]
– | – | – | – | 390 nM | – | – | – | C[C@H](NC(=O)CN1CCOCC1)C(=O)N[C@@H](CC1CCCCC1)C(=O)N[C@@H](Cc1ccccc1)C(=O)[C@@]1(C)CO1 [Compound C-1235]
2340 µg/mL (≈ 3.84 mM) | – | – | 114 nM | 33.6 nM | 28.9 nM | – | – | COc1ccc(C[C@H](NC(=O)[C@@H](NC(=O)CN2CCOCC2)[C@@H](C)O)C(=O)N[C@@H](Cc2ccccc2)C(=O)[C@@]2(C)CO2)cc1 [Compound C-1173]
4760 µg/mL (≈ 7.67 mM) | 715 nM | 707 nM | – | – | – | – | – | C[C@H](NC(=O)CN1CCOCC1)C(=O)N[C@@H](Cc1cccc(S(C)(=O)=O)c1)C(=O)N[C@@H](CC1CCCC1)C(=O)[C@@]1(C)CO1 [Compound C-1024, (S)-N-((S)-3-cyclopentyl-1-((R)-2-methyloxiran-2-yl)-1-oxopropan-2-yl)-3-(3-(methylsulfonyl)phenyl)-2-((S)-2-(2-morpholinoacetamido)propanamido)propanamide]
79.2 µg/mL (≈ 0.131 mM) | 404 nM | 251 nM | – | – | – | – | – | COc1ccc(C[C@H](NC(=O)[C@H](C)NC(=O)CN2CCCC(F)(F)C2)C(=O)N[C@@H](CC2CCCC2)C(=O)[C@@]2(C)CO2)cc1 [Compound C-1043, (S)-N-((S)-3-cyclopentyl-1-((R)-2-methyloxiran-2-yl)-1-oxopropan-2-yl)-2-((S)-2-(2-(3,3-difluoropiperidin-1-yl)acetamido)propanamido)-3-(4-methoxyphenyl)propanamide]
1190 µg/mL (≈ 2.05 mM) | – | – | 3840 nM | 241 nM | 510 nM | – | – | COc1ccc(C[C@H](NC(=O)[C@H](C)NC(=O)NN2CCOCC2)C(=O)N[C@@H](Cc2ccccc2)C(=O)[C@@]2(C)CO2)cc1 [Compound C-1178]
4540 µg/mL (≈ 7.29 mM) | – | – | 101 nM | 21.5 nM | 17.1 nM | – | – | COc1ccc(C[C@H](NC(=O)[C@@H](NC(=O)CN2CCOCC2)C2COC2)C(=O)N[C@@H](Cc2ccccc2)C(=O)[C@@]2(C)CO2)cc1 [Compound C-1183]
1980 µg/mL (≈ 3.56 mM) | – | – | – | 649 nM | – | – | – | C[C@H](NC(=O)CN1CCOCC1)C(=O)N[C@@H](CC1=CCCCC1)C(=O)N[C@@H](Cc1ccccc1)C(=O)[C@@]1(C)CO1 [Compound C-1227]
1680 µg/mL (≈ 3.05 mM) | – | – | 252 nM | 63.1 nM | 51 nM | – | – | C[C@H](NC(=O)CN1CCOCC1)C(=O)N[C@@H](Cc1ccncc1)C(=O)N[C@@H](Cc1ccccc1)C(=O)[C@@]1(C)CO1 [Compound C-1171]
2090 µg/mL (≈ 3.79 mM) | – | – | – | 252 nM | – | – | – | C[C@H](NC(=O)CN1CCOCC1)C(=O)N[C@@H](Cc1ccccn1)C(=O)N[C@@H](Cc1ccccc1)C(=O)[C@@]1(C)CO1 [Compound C-1155]
938 µg/mL (≈ 1.58 mM) | – | – | 120 nM | 13.5 nM | 13.5 nM | – | – | COc1ccc(C[C@H](NC(=O)[C@H](C)NC(=O)CN2CCOCC2)C(=O)N[C@@H](Cc2ccc(C)cc2)C(=O)[C@@]2(C)CO2)cc1 [Compound C-1181]
1380 µg/mL (≈ 2.31 mM) | – | – | 312 nM | 25.9 nM | 21 nM | – | – | COc1ccc(C[C@H](NC(=O)[C@H](C)NC(=O)CN2CCOCC2)C(=O)N[C@@H](Cc2cccc(F)c2)C(=O)[C@@]2(C)CO2)cc1 [Compound C-1180]
2480 µg/mL (≈ 4.49 mM) | – | – | 441 nM | 129 nM | 107 nM | – | – | C[C@H](NC(=O)CN1CCOCC1)C(=O)N[C@@H](Cc1cccnc1)C(=O)N[C@@H](Cc1ccccc1)C(=O)[C@@]1(C)CO1 [Compound C-1175]
10600 µg/mL (≈ 18.9 mM) | – | – | – | – | – | 1390 nM | 833 nM | C[C@H](NC(=O)CN1CCOCC1)C(=O)N[C@@H](Cc1cc[n+]([O-])cc1)C(=O)N[C@@H](CC1CCCC1)C(=O)[C@@]1(C)CO1 [Compound C-1119, 4-((S)-3-(((S)-3-cyclopentyl-1-((R)-2-methyloxiran-2-yl)-1-oxopropan-2-yl)amino)-2-((S)-2-(2-morpholinoacetamido)propanamido)-3-oxopropyl)pyridine 1-oxide]
1760 µg/mL (≈ 3.08 mM) | – | – | – | – | – | 793 nM | 76.4 nM | Cc1ccc(C[C@H](NC(=O)[C@H](C)NC(=O)CN2CCOCC2)C(=O)N[C@@H](CC2=CCCC2)C(=O)[C@@]2(C)CO2)cc1O [Compound C-1129, (S)-N-((S)-3-(cyclopent-1-en-1-yl)-1-((R)-2-methyloxiran-2-yl)-1-oxopropan-2-yl)-3-(3-hydroxy-4-methylphenyl)-2-((S)-2-(2-morpholinoacetamido)propanamido) propanamide]
917 µg/mL (≈ 1.48 mM) | – | – | – | – | – | 868 nM | 25.2 nM | C[C@@H](NC(=O)[C@H]1CC[C@H](O)CC1)C(=O)N[C@@H](Cc1ccc(S(C)(=O)=O)cc1)C(=O)N[C@@H](CC1=CCCC1)C(=O)[C@@]1(C)CO1 [Compound C-1096, (1r,4R)-N-((R)-1-(((S)-1-(((S)-3-(cyclopent-1-en-1-yl)-1-((R)-2-methyloxiran-2-yl)-1-oxopropan-2-yl)amino)-3-(4-(methylsulfonyl)phenyl)-1-oxopropan-2-yl)amino)-1-oxopropan-2-yl)-4-hydroxycyclohexanecarboxamide]
> 10000 µg/mL | – | – | – | – | – | 266 nM | 20.1 nM | COc1ccc([C@@H](O)[C@H](NC(=O)[C@H](CO)NC(=O)CN2CCOCC2)C(=O)N[C@@H](CC2=CCCC2)C(=O)[C@@]2(C)CO2)cc1 [Compound C-1144, (2S,3R)-N-((S)-3-(cyclopent-1-en-1-yl)-1-((R)-2-methyloxiran-2-yl)-1-oxopropan-2-yl)-3-hydroxy-2-((S)-3-hydroxy-2-(2-morpholinoacetamido)propanamido)-3-(4-methoxyphenyl)propanamide]
